Test results published in patent US9073906B2, “Sulfamide derivative having an adamantyl group and its pharmaceutically acceptable salt” (KOREA RESEARCH INSTITUTE OF CHEMICAL TECHNOLOGY, priority 2011, dated 2015).

Assays:
human 11β-HSD1 = human 11β-HSD1 (Homo sapiens (Human), UniProt P28845); experiment: HTRF cortisol assay in 11β-HSD1 overexpressing CHO cells; type: cell-based; conditions: human 11β-HSD1 overexpressing CHO cells, 160 nM cortisone, 3 hr at 37° C., read-out: IC50(nM) to 11β-HSD-1
human 11β-HSD1, sequence (P28845 whole entry): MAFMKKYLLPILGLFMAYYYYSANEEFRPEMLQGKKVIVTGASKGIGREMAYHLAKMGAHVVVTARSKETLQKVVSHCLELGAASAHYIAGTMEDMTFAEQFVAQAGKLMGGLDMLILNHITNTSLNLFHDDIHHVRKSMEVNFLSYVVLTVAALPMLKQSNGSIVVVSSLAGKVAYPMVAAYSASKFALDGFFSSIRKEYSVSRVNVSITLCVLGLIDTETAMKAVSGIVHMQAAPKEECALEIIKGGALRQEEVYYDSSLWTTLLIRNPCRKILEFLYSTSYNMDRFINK
Procedure: The full-length cDNA molecule coding for human or mouse 11β-HSD1 was inserted into pcDNA (Promega) as mammalian expression vectors and transformed into CHO cells for 5 hr using Lipofectamine plus (Invitrogen) in accordance with manufacturer's manual, followed by stabilization for 48 hr. The CHO cells were incubated with 0.8 μg/ml puromycin (Sigma) once every three days for two weeks to obtain human or mouse 11β-HSD1 overexpressing cells. The cells were grown and frozen, and thawed for enzyme inhibition tests.
The in vitro inhibitory activities of the novel compounds to human 11β-HSD1 were evaluated in accordance with homogenous time-resolved fluorescence (HTRF).
The human or mouse 11β-HSD1 overexpressing cells were subcultured at the number of 2.5×10^4 cells in 96-well plate and stabilized for 24 hr. […] Then, samples of the medium (10 μl) were transferred to 384-well plate and the amounts of cortisol produced were measured using a cortisol kit (Cisbio international) in accordance with manufacturer's instruction. […] Delta F value=(Ratio of compounds−Ratio of negative)/Ratio of negative×100 2. Normalized value=Delta F value of compounds−Delta F value of control 3. % inhibition=Normalized value of compounds/Normalized value of background×100 4.

human 11β-HSD-2 = human 11β-HSD-2 (Homo sapiens (Human), UniProt P80365); experiment: HTRF analysis of inhibition of 11β-HSD-2; type: cell-based; conditions: human 11β-HSD-2, HTRF
human 11β-HSD-2, sequence (P80365 whole entry): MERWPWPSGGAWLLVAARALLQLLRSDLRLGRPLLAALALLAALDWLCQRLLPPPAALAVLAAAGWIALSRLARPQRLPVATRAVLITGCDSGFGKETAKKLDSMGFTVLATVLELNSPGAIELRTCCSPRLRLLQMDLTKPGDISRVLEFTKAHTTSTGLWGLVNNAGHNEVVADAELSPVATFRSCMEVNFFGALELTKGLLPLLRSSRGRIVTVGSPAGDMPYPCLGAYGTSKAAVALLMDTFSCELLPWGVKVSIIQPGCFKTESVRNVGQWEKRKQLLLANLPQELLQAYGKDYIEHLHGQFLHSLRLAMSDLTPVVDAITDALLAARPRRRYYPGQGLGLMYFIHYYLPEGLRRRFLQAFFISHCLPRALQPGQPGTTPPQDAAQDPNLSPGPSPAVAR

CC1CN(CC(=O)NC2C3CC4CC2CC(C(N)=O)(C4)C3)S(=O)(=O)N(c2c(Cl)cc(Cl)cc2Cl)C1 (centres unmarked) [Compound 156, 4-(2-(4-methyl-1,1-dioxido-6-(2,4,6-trichlorophenyl)-1,2,6-thiadiazinan-2-yl)acetamido)adamantan-1-carboxamide]
IC50 (human 11β-HSD1): 1 nM | IC50 (human 11β-HSD-2): > 10000 nM

O=C(CN1CCCN(Cc2ccccc2F)S1(=O)=O)NC1C2CC3CC(C2)CC1C3 (centres unmarked) [Compound 14, N-(adamantan-2-yl)-2-(6-(2-fluorobenzyl)-1,1-dioxido-1,2,6-thiadiazinan-2-yl)acetamide]
IC50 (human 11β-HSD1): 1660 nM | IC50 (human 11β-HSD-2): > 10000 nM

CC(C)(C)OC(=O)N1CCCN(CC(=O)NC2C3CC4CC(C3)CC2C4)S1(=O)=O (centres unmarked) [Compound 3, tert-butyl 6-(2-(adamantan-2-ylamino)-2-oxoethyl)-1,2,6-thiadiazinan-2-carboxylate 1,1-dioxide]
IC50 (human 11β-HSD1): 363 nM | IC50 (human 11β-HSD-2): > 10000 nM

O=C(CN1CCCN(Cc2ccccc2)S1(=O)=O)NC1C2CC3CC(C2)CC1C3 (centres unmarked) [Compound 5, N-(adamantan-2-yl)-2-(6-benzyl-1,1-dioxido-1,2,6-thiadiazinan-2-yl)acetamide]
IC50 (human 11β-HSD1): 360 nM | IC50 (human 11β-HSD-2): > 10000 nM

C[C@@H]1CN(CC(=O)NC2C3CC4CC2CC(C(N)=O)(C4)C3)S(=O)(=O)N(c2c(Cl)cc(C(F)(F)F)cc2Cl)C1 (stereo partly drawn) [Compound 196, 4-(2-((R)-6-(2,6-dichloro-4-(trifluoromethyl)phen-yl)-4-methyl-1,1-dioxido-1,2,6-thiadiazinan-2-yl)acetamido)adamantan-1-carboxamide]
IC50 (human 11β-HSD1): 1.3 nM | IC50 (human 11β-HSD-2): > 10000 nM

NC(=O)C12CC3CC(C1)C(NC(=O)CN1CCCN(c4cccc(F)c4)S1(=O)=O)C(C3)C2 (centres unmarked) [Compound 69, 4-(2-(6-(3-fluorophenyl)-1,1-dioxido-1,2,6-thiadiazinan-2-yl)acetamido)adamantan-1-carboxamide]
IC50 (human 11β-HSD1): 3 nM | IC50 (human 11β-HSD-2): > 10000 nM

CC1(C)CN(CC(=O)NC2C3CC4CC2CC(C(N)=O)(C4)C3)S(=O)(=O)N(c2c(Cl)cc(Cl)cc2Cl)C1 (centres unmarked) [Compound 177, 4-(2-(4,4-dimethyl-1,1-dioxido-6-(2,4,6-trichlorophenyl)-1,2,6-thiadiazinan-2-yl)acetamido)adamantan-1-carboxamide]
IC50 (human 11β-HSD1): 5 nM | IC50 (human 11β-HSD-2): > 10000 nM

NC(=O)C12CC3CC(C1)C(NC(=O)CN1CCCN(c4ccccc4F)S1(=O)=O)C(C3)C2 (centres unmarked) [Compound 59, 4-(2-(6-(2-fluorophenyl)-1,1-dioxido-1,2,6-thiadiazinan-2-yl)-acetamido)adamantan-1-carboxamide]
IC50 (human 11β-HSD1): 14 nM | IC50 (human 11β-HSD-2): > 10000 nM

NC(=O)C12CC3CC(C1)C(NC(=O)CN1CCCN(c4c(F)cc(F)cc4F)S1(=O)=O)C(C3)C2 (centres unmarked) [Compound 89, 4-(2-(1,1-dioxido-6-(2,4,6-trifluorophenyl)-1,2,6-thiadiazinan-2-yl)acetamido)adamantan-1-carboxamide]
IC50 (human 11β-HSD1): 20 nM | IC50 (human 11β-HSD-2): > 10000 nM

CC1CCN(c2c(Cl)cc(Cl)cc2Cl)S(=O)(=O)N1CC(=O)NC1C2CC3CC1CC(C(N)=O)(C3)C2 (centres unmarked) [Compound 128, 4-(2-(3-methyl-1,1-dioxido-6-(2,4,6-trichlorophenyl)-1,2,6-thiadiazinan-2-yl)acetamido) adamantan-1-carboxamide]
IC50 (human 11β-HSD1): 0.1 nM | IC50 (human 11β-HSD-2): > 10000 nM

NC(=O)C12CC3CC(C1)C(NC(=O)CN1CCCN(c4ccc(F)cc4)S1(=O)=O)C(C3)C2 (centres unmarked) [Compound 44, 4-(2-(6-(4-fluorophenyl)-1,1-dioxido-1,2,6-thiadiazinan-2-yl)acetamido)adamantan-1-carboxamide]
IC50 (human 11β-HSD1): 79 nM | IC50 (human 11β-HSD-2): > 10000 nM

CC1CN(CC(=O)NC2C3CC4CC2CC(C(N)=O)(C4)C3)S(=O)(=O)N(c2c(Cl)cc(C(F)(F)F)cc2Cl)C1 (centres unmarked) [Compound 183, (E) 4-(2-(6-(2,6-dichloro-4-(trifluoromethyl)phenyl)-4-methyl-1,1-dioxido-1,2,6-thiadiazinan-2-yl)acetamido)adamantan-1-carboxamide]
IC50 (human 11β-HSD1): 4.8 nM | IC50 (human 11β-HSD-2): > 10000 nM

NC(=O)[C@]12CC3CC(C1)[C@@H](NC(=O)CN1CC(F)(F)CN(c4c(Cl)cc(Cl)cc4Cl)S1(=O)=O)C(C3)C2 [Compound 172, 4-(2-(4,4-difluoro-1,1-dioxido-6-(2,4,6-trichlorophenyl)-1,2,6-thiadiazinan-2-yl)acetamido)adamantan-1-carboxamide (E form)]
IC50 (human 11β-HSD-2): > 10000 nM

Cc1ccc(N2CCCN(CC(=O)NC3C4CC5CC(C4)CC3C5)S2(=O)=O)cc1 (centres unmarked) [Compound 24, N-(adamantan-2-yl)-2-(1,1-dioxido-6-(p-tolyl)-1,2,6-thiadiazinan-2-yl)acetamide]
IC50 (human 11β-HSD1): 3370 nM | IC50 (human 11β-HSD-2): > 10000 nM

C[C@H]1CN(CC(=O)NC2C3CC4CC2CC(C(N)=O)(C4)C3)S(=O)(=O)N(c2c(Cl)cc(C(F)(F)F)cc2Cl)C1 (stereo partly drawn) [Compound 195, 4-(2-((S)-6-(2,6-dichloro-4-(trifluoromethyl)phen-yl)-4-methyl-1,1-dioxido-1,2,6-thiadiazinan-2-yl)acetamido)adamantan-1-carboxamide]
IC50 (human 11β-HSD-2): > 10000 nM

CN(CC(=O)NC1C2CC3CC1CC(C(N)=O)(C3)C2)S(=O)(=O)N(C)c1c(Cl)cc(Cl)cc1Cl (centres unmarked) [Compound 123, 4-(2-(methyl(N-methyl-N-(2,4,6-trichlorophenyl)sulfa-moyl)amino)acetamido) adamantan-1-carboxamide]
IC50 (human 11β-HSD1): 0.8 nM | IC50 (human 11β-HSD-2): > 10000 nM

C=C1CN(CC(=O)NC2C3CC4CC2CC(C(N)=O)(C4)C3)S(=O)(=O)N(c2c(Cl)cc(Cl)cc2Cl)C1 (centres unmarked) [Compound 175, 4-(2-(4-methylene-1,1-dioxido-6-(2,4,6-trichlorophenyl)-1,2,6-thiadiazinan-2-yl)acetamido)adamantan-1-carboxamide]
IC50 (human 11β-HSD1): 14 nM | IC50 (human 11β-HSD-2): > 10000 nM

NC(=O)C12CC3CC(C1)C(NC(=O)CN1CCCCN(c4c(Cl)cc(Cl)cc4Cl)S1(=O)=O)C(C3)C2 (centres unmarked) [Compound 122, 4-(2-(1,1-dioxido-7-(2,4,6-trichlorophenyl)-1,2,7-thiadiazepane-2-yl)acetamido) adamantan-1-carboxamide]
IC50 (human 11β-HSD1): 0.4 nM | IC50 (human 11β-HSD-2): > 10000 nM

NC(=O)C12CC3CC(C1)C(NC(=O)CN1CCN(c4c(Cl)cc(Cl)cc4Cl)S1(=O)=O)C(C3)C2 (centres unmarked) [Compound 124, 4-(2-(1,1-dioxido-5-(2,4,6-trichlorophenyl)-1,2,5-thiadiazolidin-2-yl)acetamido) adamantan-1-carboxamide]
IC50 (human 11β-HSD1): 187 nM | IC50 (human 11β-HSD-2): > 10000 nM

O=C(CN1CCCN(c2ccccc2)S1(=O)=O)NC1C2CC3CC(C2)CC1C3 (centres unmarked) [Compound 2, N-(adamantan-2-yl)-(1,1-dioxido-6-phenyl-1,2,6-thiadiazinan-2-yl)acetamide]
IC50 (human 11β-HSD1): 12 nM | IC50 (human 11β-HSD-2): > 10000 nM

NC(=O)C12CC3CC(C1)C(NC(=O)CN1CCCN(c4c(Cl)cc(Cl)cc4Cl)S1(=O)=O)C(C3)C2 (centres unmarked) [Compound 88, 4-(2-(1,1-dioxido-6-(2,4,6-trichlorophenyl)-1,2,6-thiadiazinan-2-yl)acetamido)adamantan-1-carboxamide]
IC50 (human 11β-HSD1): 0.2 nM | IC50 (human 11β-HSD-2): > 10000 nM

NC(=O)C12CC3CC(C1)C(NC(=O)CN1CCCN(c4ccccc4)S1(=O)=O)C(C3)C2 (centres unmarked) [Compound 60, 4-(2-(1,1-dioxido-6-phenyl-1,2,6-thiadiazinan-2-yl)acetamido)adamantan-1-carboxamide]
IC50 (human 11β-HSD1): 17 nM | IC50 (human 11β-HSD-2): > 10000 nM

NC(=O)C12CC3CC(C1)C(NC(=O)CN1CC4(CC4)CN(c4c(Cl)cc(Cl)cc4Cl)S1(=O)=O)C(C3)C2 (centres unmarked) [Compound 176, 4-(2-(6,6-dioxido-7-(2,4,6-trichlorophenyl)-6-thia-5,7-diazaspiro[2,5]octane-5-yl)acetamido)adamantan-1-carboxamide]
IC50 (human 11β-HSD1): 5 nM | IC50 (human 11β-HSD-2): > 10000 nM
